This is an account of results in patent EP0334164A2, “Antihypertensive combination preparation” (F. HOFFMANN-LA ROCHE AG, priority 1988, dated 1989).

Experiment [1] has as its system Patienten mit einer essentiellen Hypertonie. In words: Crossover study, 3-week treatment periods, sitting blood pressure in hypertensive patients. The experiment is classed as in vivo, human. To be noted: 3 weeks treatment, 2,5 mg Cilazapril and/or 120 mg Propranolol; for mittlere Senkung des diastolischen Blutdrucks: 2 Stunden after dosing, sitting, 13 patients; for Ansprechen (Senkung des diastolischen Blutdrucks auf unter 90 mmHg): number of responders. The protocol:
B) Zehn männliche und drei weibliche Patienten mit einer essentiellen Hypertonie im Alter von 43-62 Jahren und mit einem Gewicht von 64-106 kg nahmen an dieser Crossover-Studie teil, die folgende drei Behandlungsabschnitte von jeweils 3 Wochen umfasste, wobei die Abschnitte (1) und (2) je nach Gruppe vertauscht waren: • (1) 2,5 mg Cilazapril • (2) 120 mg Propranolol • (3) 2,5 mg Cilazapril plus 120 mg Propranolol.
Mit Ausnahme von drei Patienten erhielt keiner während mindestens 2 Wochen vor Beginn einer zweiwöchigen Placebo-Behandlung eine blutdrucksenkende Medikation. […] Dann wurden die Patienten wahlweise in zwei Gruppen eingeteilt, wobei die eine Gruppe zuerst mit Cilazapril und die andere zuerst mit Propranolol behandelt wurde. Nach der dreiwöchigen Behandlungsdauer wurde die Medikation in den beiden Gruppen ausgetauscht. Während der Behandlungsabschnitte wurden alle Messungen 2 Stunden nach Verabreichung durchgeführt, wobei der Blutdruck jeweils im Sitzen gemessen wurde.
Als "Ansprechen" auf eine Therapie wurde in dieser Studie eine Senkung des diastolischen Blutdrucks auf unter 90 mmHg defineriert.

Experiment [2] relates to gesunde männliche Probanden. In words: Double-blind 4-way crossover study, 7-day treatment periods, blood pressure and pulse in healthy volunteers. Type of experiment: in vivo, human. Particulars: for Diastolische Blutdruckwerte am 7. Versuchstag, Mittelwert / Systolische Blutdruckwerte am 7. Versuchstag, Mittelwert: mean of 6 Probanden, day 7, lying, 2,5 mg Cilazapril and/or 120 mg Propranolol daily; for Abfall des systolischen und diastolischen Blutdrucks: Monotherapie (2,5 mg Cilazapril or 120 mg Propranolol), day 7, healthy volunteers. The protocol: […] Proband […], wurde vor Beginn der Studie von jedem Probanden die […], und man […] Kontrollen verbunden war: […] Die Probanden hatten jeweils an den Versuchstagen 0 bis 6 […] zu […] Abend […] noch geraucht. Nach 5-minütiger Ruhepause im Sitzen wurden systolischer und diastolischer Blutdruck und Puls […] die Probanden […], und man […] unter Ueberwachung die Medikation mit 100 ml Leitungswasser und […] Hause. Am […] Probanden […]; die Untersuchungen […] bei 15° erhobenem Oberkörper durchgeführt. Nach jeweils 15-minütiger […] und Puls zu den Zeitpunkten -2, 1, 2, 6, 8 und 24 Stunden gemessen.

For experiment [3], the system named is Patienten, deren Bluthochdruck mit Captopril behandelt wird. To be noted: added to Captopril treatment; Amery et al., Clinical Science 61 (1981); cited from earlier work.

Turning to `CCOC(=O)[C@H](CCc1ccccc1)N[C@H]1CCCN2CCC[C@@H](C(=O)O)N2C1=O` [Cilazapril, 9(S)-[1-(S)-Aethoxycarbonyl-3-phenylpropylamino]octahydro-10-oxo-6H-pyridazo[1,2-a]-[1,2]diazepin-1(S)-carbonsäure], the “mittlere Senkung des diastolischen Blutdrucks” value in experiment [1] is reported as 8 mmHg. For the same compound, the “Ansprechen (Senkung des diastolischen Blutdrucks auf unter 90 mmHg)” value in experiment [1] stood at 4 von 13 Patienten. The “Diastolische Blutdruckwerte am 7. Versuchstag, Mittelwert” value in experiment [2] (1 Std) came out at 72 mmHg; in experiment [2] (2 Std), 69 mmHg; in experiment [2] (6 Std), 63 mmHg; in experiment [2] (8 Std) it was 66 mmHg; in experiment [2] (24 Std), 74 mmHg; in experiment [2] (-2 Std), 73 mmHg. For the same compound, the “Systolische Blutdruckwerte am 7. Versuchstag, Mittelwert” value in experiment [2] (1 Std) was 109 mmHg; in experiment [2] (2 Std), 104 mmHg; in experiment [2] (6 Std), 107 mmHg; in experiment [2] (8 Std), 108 mmHg; in experiment [2] (24 Std), 118 mmHg; in experiment [2] (-2 Std), 109 mmHg. Moreover, in experiment [2], the “Abfall des systolischen und diastolischen Blutdrucks” value is listed as “ca. 7 mmHg”. Also, the “Zunahme der Herzfrequenz” value in experiment [2] (Monotherapie, 2,5 mg Cilazapril, day 7) was “ca. 5 Schläge/Minute”.

Take `CC(C)NCC(O)COc1cccc2ccccc12` (stereo not drawn) [Propranolol]: the “mittlere Senkung des diastolischen Blutdrucks” value in experiment [1] was found to be 9 mmHg. Also, in experiment [1], the “Ansprechen (Senkung des diastolischen Blutdrucks auf unter 90 mmHg)” value came to 2 von 13 Patienten. Also, the “Blood pressure effect of additional Propranolol” value in experiment [3] is “eine weitere Blutdrucksenkung”. Also, the “Diastolische Blutdruckwerte am 7. Versuchstag, Mittelwert” value in experiment [2] (1 Std) is listed as 63 mmHg; in experiment [2] (2 Std) it was 67 mmHg; in experiment [2] (6 Std) it was 60 mmHg; in experiment [2] (8 Std), 65 mmHg; in experiment [2] (24 Std) it was 76 mmHg; in experiment [2] (-2 Std) it was 72 mmHg. Further, the “Systolische Blutdruckwerte am 7. Versuchstag, Mittelwert” value in experiment [2] (1 Std) turned out to be 106 mmHg; in experiment [2] (2 Std), 106 mmHg; in experiment [2] (6 Std) it was 110 mmHg; in experiment [2] (8 Std), 108 mmHg; in experiment [2] (24 Std), 115 mmHg; in experiment [2] (-2 Std), 111 mmHg. Besides, the “Abfall des systolischen und diastolischen Blutdrucks” value in experiment [2] is reported as “ca. 7 mmHg”. In addition, in experiment [2] (Monotherapie, 120 mg Propranolol, day 7), the “Abnahme der Herzfrequenz” value is given as “ca. 8 Schläge/Minute”.
